In patent publication US9260710B2, “Photocleavable linker” (City of Hope, priority 2012, dated 2016):

What was measured:
Type in all cases: cell-based
[1] = test system: EGFP-FKBP-LC8TRAP transfected COS1 cells; assay: Reversibility of endosome dispersion after UV induction; details: for Percentage of endosomes dispersion (recovery): UV 10 min
Procedure: Cell Culture. COS1 cells were cultured in DMEM (CELLGRO®) supplemented with 10% fetal bovine/calf serum (Omega Scientific). Transfection was performed in 80-90% confluent 24-h cultures of COS1 cells using LIPOFECTAMINE™ 2000 (Invitrogen) and OPTI-MEM™ media (GIBCO®) according to the manufacturer's recommendations. Various concentrations (0 nM to 1000 nM) of AP (Ariad Pharmaceuticals Inc.) and PhAP (as described herein) were added to each experimental wells 24 hr. post transfection and incubated for different periods of time before analyzing the cells. For reversibility of endosome dispersion studies, 500 nM of AP/PhAP were used. In each case, the cells were washed well with PBS and supplemented with fresh media before inducing with UV light (10 mins., 4 W, 350 nm) and allowed to recover for various time period at 37° C., before analysis.
Immunostaining and Microscopy. For immunostaining, transiently transfected COS1 cells were fixed with 3.7% formaldehyde at room temperature for 10 min, and subsequent immunostaining was performed as described previously^[2]. Briefly, COS 1 cells grown on 25-mm coverslips were washed 3× with PBS, treated with 3.7% formaldehyde (Sigma) in PBS for fixation, and permeabilized in 0.5% Triton X-100 (Sigma) in PBS at room temperature for 10 min. Cells were then incubated with blocking buffer containing 4% skimmed milk (fat free) and 0.5% Triton X-100 in PBS. Anti-EEA1 monoclonal antibody was added to label early endosome marker protein at a dilution of 1:100 in the same buffer for 30 min at RT, and the coverslips were washed and incubated with rhodamine-conjugated donkey anti-mouse secondary antibody (1:100). After washing, the coverslips were mounted on slides to visualize the trapping effects. Samples were viewed using an Olympus IX81 automated inverted microscope equipped with water immersion 60× objective. The level of dispersion was quantified by counting 100 cells per coverslip. Each experiment was performed in triplicate. Images were obtained using a Spot RT Slider high-resolution cooled CCD camera equipped to IX81 microscope and Image-Pro software. Images were cropped and processed using Adobe Photoshop 7.0 (Adobe Systems).
UV induction. For UV-induction and recovery of endosome studies, cells were washed with PBS and fresh media were added after drug treatment. The washed cells were then treated with a hand held UV-lamp (365 nm/4 watt) for 10 mins. The cells were then left to recover at 37° C. for varying period of time before staining and analysis.
Next, we characterized the reversibility of endosome dispersion in COS1 cells UV-induced cleavage of PhAP. In these experiments, transiently transfected cells were incubated with PhAP (500 nM) or AP for times ranging from 0-2 h, after which cells were washed rapidly, replenished with fresh media, and then exposed to UV light (10 min, 4 W, 350 nm). The cells were then fixed at 0, 1, 2, 4, and 8 h post UV radiation and the endosomes imaged using fluorescence microscopy at 60× magnification. We observed a gradual recovery of endosomes to the perinuclear region during the first 4 h after UV exposure (44.1±2.3%), with a slight increase in dispersion after 8 h (48.9±3.9%), for cells treated with PhAP (FIG. 3A).

[2] = test system: GFP-LC8 trap transfected Cos1/Cos7 cells; assay: Organelle dispersion and microtubule array in cells expressing the LC8 trap
Description: (§1) In vivo effect of Dynein LC and IC Traps. As tests for LC function, we evaluated the effects of the traps on early endosome, lysosome, and Golgi distribution, as well as mitotic progression. First, we fused green fluorescent protein (GFP) to the N-terminus of both FKBP-traps to identify transfected cells. Next, we transfected Cos1, Cos7, or HeLa cells with either trap or a GFP-FKBP control and labeled endosomes, lysosomes and Golgi with EEA1, LAMP2 and GM130 markers, respectively (FIGS. 12A-12C). […] The percentage of cells expressing the GFPLC8 or GFP-TcTex1 trap with dispersed endosomes was 14.7±1.5% and 13.3±1.5%, respectively, as compared to 11.7±3.5% and 10.3±3.5% for non-transfected cells and cells that expressed a GFP-FKBP control, respectively. […] After 8 h of treatment with AP20187, we observed greater than 50% dispersion of the three organelle types for each trap.
(§2) To ensure the AP20187 concentration was not limiting, we followed the LC8-trap-induced dispersion of lysosomes as a function of AP20187 concentration after 8 h. […] For the TcTex1-trap, we observed efficient endosome, lysosome and Golgi dispersion at AP20187 concentrations of 1 μM or greater.
(§3) Kinetic Analysis Separates Dynein Functions. A major purpose for developing these traps is to provide immediate inhibition of protein function and follow the cellular response from this perturbation to gain new insight. Thus, we monitored the fraction of cells with dispersed organelles as a function of time. After induction of dimerization by AP20187, effects on both early endosome and lysosome distribution were detectable at 10 min, and leveled off at ˜2 h (FIGS. 14A-14B). […] The most rapid effect was observed on lysosomes in cells expressing the LC8 trap. In striking contrast, Golgi dispersal using either trap occurred over a much longer time-course, requiring 8 h after induction of dimerization to reach similar levels of dispersion as for endosomes and lysosomes. Twenty-four hours after addition of AP20187, the percentage of cells with dispersed Golgi reached levels greater than 85%.

[3] = test system: GFP-TcTex1 trap transfected Cos1/Cos7 cells; assay: Organelle dispersion and microtubule array in cells expressing the TcTex1 trap; design: dispersion of the three organelle types (early endosomes, lysosomes, Golgi): dose or concentration left out as unconfirmed
Description: as §1, §2, §3

[4] = test system: non-transfected or GFPFKBP-expressing cells; assay: Organelle dispersion in cells without trap treated with AP20187
Description: as §1, §2

[5] = 30 mins. treatment (500 nM), recovery 0 h
[6] = 30 mins. treatment (500 nM), recovery 1 h
[7] = 30 mins. treatment (500 nM), recovery 2 h
[8] = 30 mins. treatment (500 nM), recovery 4 h
[9] = 30 mins. treatment (500 nM), recovery 8 h
[10] = 1 hr. treatment (500 nM), recovery 0 h
[11] = 1 hr. treatment (500 nM), recovery 1 h
[12] = 1 hr. treatment (500 nM), recovery 2 h
[13] = 1 hr. treatment (500 nM), recovery 4 h
[14] = 1 hr. treatment (500 nM), recovery 8 h
[15] = 2 hr. treatment (500 nM), recovery 0 h
[16] = 2 hr. treatment (500 nM), recovery 1 h
[17] = 2 hr. treatment (500 nM), recovery 2 h
[18] = 2 hr. treatment (500 nM), recovery 4 h
[19] = 2 hr. treatment (500 nM), recovery 8 h
[20] = after induction of dimerization
[21] = twenty-four hours after addition

Row | Compound | Percentage of endosomes dispersion (recovery) [1, 5] | Percentage of endosomes dispersion (recovery) [1, 6] | Percentage of endosomes dispersion (recovery) [1, 7] | Percentage of endosomes dispersion (recovery) [1, 8] | Percentage of endosomes dispersion (recovery) [1, 9] | Percentage of endosomes dispersion (recovery) [1, 10] | Percentage of endosomes dispersion (recovery) [1, 11] | Percentage of endosomes dispersion (recovery) [1, 12] | Percentage of endosomes dispersion (recovery) [1, 13] | Percentage of endosomes dispersion (recovery) [1, 14] | Percentage of endosomes dispersion (recovery) [1, 15] | Percentage of endosomes dispersion (recovery) [1, 16] | Percentage of endosomes dispersion (recovery) [1, 17] | Percentage of endosomes dispersion (recovery) [1, 18] | Percentage of endosomes dispersion (recovery) [1, 19] | further results
1 | CCC(C(=O)N1CCCCC1C(=O)OC(CCc1ccc(OC)c(OC)c1)c1cccc(OCC(=O)NCC(CNC(=O)COc2cccc(C(CCc3ccc(OC)c(OC)c3)OC(=O)C3CCCCN3C(=O)C(CC)c3cc(OC)c(OC)c(OC)c3)c2)CN(C)C)c1)c1cc(OC)c(OC)c(OC)c1 (stereo not drawn) [AP, AP20187] | 51.8 ± 4.4% | 64.7 ± 2.0% | 68.3 ± 3.7% | 69.8 ± 4.3% | 67.9 ± 1.9% | 58.0 ± 4.3% | 71.2 ± 2.5% | 69.7 ± 3.6% | 70.4 ± 3.1% | 70.8 ± 1.9% | 69.1 ± 3.2% | 68.9 ± 3.2% | 70.7 ± 4.0% | 69.5 ± 1.9% | 70.3 ± 3.3% | endosome dispersion after UV exposure, all time points ([1]; 0-8 h post UV, with or without UV exposure): remained dispersed at all time points evaluated; saturation point of endosome dispersion ([1]; 30 minutes or 1 hr treatment followed by UV exposure): ~70%; dispersion of the three organelle types (early endosomes, lysosomes, Golgi) ([2]; 8 h of treatment, 100 μM AP20187): greater than 50%; microtubule radial array / cytoskeleton changes ([2]; 8 h post-induction): No significant changes; AP20187 concentration at which lysosome dispersion reached a plateau ([2]; after 8 h): 100 nM; time at which effects on early endosome and lysosome distribution leveled off [2, 20]: ~2 h; time at which effects on early endosome and lysosome distribution were detectable [2, 20]: 10 min; time required for Golgi dispersal to reach similar levels as endosomes and lysosomes [2, 20]: 8 h; percentage of cells with dispersed Golgi [2, 21]: greater than 85%; AP20187 concentrations giving efficient endosome, lysosome and Golgi dispersion [3]: ≥ 1 µM; dispersion of the three organelle types (early endosomes, lysosomes, Golgi) ([3]; 8 h of treatment): greater than 50%; microtubule radial array / cytoskeleton changes ([3]; 8 h post-induction): No significant changes; time at which effects on early endosome and lysosome distribution leveled off [3, 20]: ~2 h; time at which effects on early endosome and lysosome distribution were detectable [3, 20]: 10 min; time required for Golgi dispersal to reach similar levels as endosomes and lysosomes [3, 20]: 8 h; percentage of cells with dispersed Golgi [3, 21]: greater than 85%; effect on dispersion for each organelle ([4]; AP20187 for 8 h): did not affect the dispersion; dispersal of organelles at any concentration tested ([4]; non-transfected cells, <2 μM): did not show dispersal
2 | CC[C@H](C(=O)N1CCCC[C@H]1C(=O)O[C@H](CCc1ccc(OC)c(OC)c1)c1cccc(OCC(=O)OC(C)c2ccc(C(C)OC(=O)COc3cccc([C@@H](CCc4ccc(OC)c(OC)c4)OC(=O)[C@@H]4CCCCN4C(=O)[C@@H](CC)c4cc(OC)c(OC)c(OC)c4)c3)c([N+](=O)[O-])c2)c1)c1cc(OC)c(OC)c(OC)c1 (stereo partly drawn) [PhAP] | 53.2±2.4% | 53.7 ± 4.0% | 50.8 ± 2.3% | 48.0 ± 0.5% | 49.3 ± 6.7% | 57.8±8.0% | 56.4 ± 1.7% | 55.7 ± 8.8% | 46.7 ± 0.6% | 48.1 ± 2.0% | 69.5 ± 2.4% | 66.3 ± 3.2% | 57.6 ± 2.6% | 44.1±2.3% | 48.9±3.9% | 
